Data published in ChEMBL document CHEMBL5331057, “A decade of approved first-in-class small molecule orphan drugs: Achievements, challenges and perspectives” (Eur J Med Chem, 2022).
Values after ≈ are worked out from the molar mass of the structure shown.

What was measured:
Format in all cases: functional
[1] = system: Mycobacterium tuberculosis
[2] = system: Mycobacterium tuberculosis; remark: listed apart in the source
[3] = system: Mycobacterium tuberculosis; remark: listed apart in the source

Molecule `COc1nc2ccc(Br)cc2cc1[C@@H](c1ccccc1)[C@@](O)(CCN(C)C)c1cccc2ccccc12` [BEDAQUILINE] has an MIC [1] of 0.01 µg/mL (≈ 0.018 µM) and an MIC [2] of 0.03 µg/mL (≈ 0.054 µM).
`O=[N+]([O-])c1cn2c(n1)OC[C@@H](OCc1ccc(OC(F)(F)F)cc1)C2` [PRETOMANID] was tested, and the MIC50 [3] was 0.015 µg/mL (≈ 0.0418 µM) and the MIC90 [3] was 0.063 µg/mL (≈ 0.175 µM).
